In patent publication US8188077B2, “Apoptosis-inducing agents for the treatment of cancer and immune and autoimmune diseases” (Abbott Laboratories, priority 2010, dated 2012):

molecular target: T1, Bcl-2 protein (Homo sapiens, UniProt P10415, DELINS35-91DVEENRTEAPEGTESE, form not given); assay: Bcl-2 fluorescence polarization assay (FPA) binding; conditions: 10 nM Bcl-2 protein, 1 nM fluorescein-labeled BAX peptide, room temperature, read-out: Bcl-2 FPA 11pt Ki
T1 construct: fused on or other part: Bcl-xL (Q07817) residues 29-44 stand in place of Bcl-2's own unstructured loop 35-91; The C-terminal membrane anchor (208-239) is absent
T1 sequence (P10415 with tags, fused parts or gaps with the stated changes): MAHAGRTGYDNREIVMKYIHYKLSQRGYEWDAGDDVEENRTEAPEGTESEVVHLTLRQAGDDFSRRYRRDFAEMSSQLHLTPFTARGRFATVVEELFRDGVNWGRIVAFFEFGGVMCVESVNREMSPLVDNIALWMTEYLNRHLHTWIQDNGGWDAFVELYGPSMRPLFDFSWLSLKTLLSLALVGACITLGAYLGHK
Experimental: Assays for the inhibition of Bcl-2 were performed in 96-well microtiter plates. Compounds of the instant invention were diluted in DMSO to concentrations between […] and 10 pM and introduced into each well of the plate. A mixture totaling 125 µL per well of assay buffer (20 mM phosphate buffer (pH 7.4), 1 mM EDTA, 0.05% PF-68), 10 nM of Bcl-2 protein (prepared according to the procedure described in PNAS 2001, 98, 3012-3017), 1 nM fluorescein-labeled BAX peptide (prepared in-house), and the DMSO solution of the compound of the instant invention was shaken for 2 minutes and placed in a LJL Analyst (LJL Bio Systems, CA. Polarization was measured at room temperature using a continuous Fluorescein lamp (excitation 485 nm, emission 530 nm). Ki values were calculated using Microsoft Excel.

Ki [nM]	SMILES
21.7	CC1(C)C2C=C(c3ccccc3CN3CCN(c4ccc(C(=O)NS(=O)(=O)c5ccc(NCC6CCOCC6)c([N+](=O)[O-])c5)cc4)CC3)C1(C(=O)Nc1ccccc1)CC2 (stereo not shown) [Example 35, 7,7-dimethyl-2-{2-[(4-{4-[({3-nitro-4-[(tetrahydro-2H-pyran-4-ylmethyl)amino]phenyl}sulfonyl)carbamoyl]phenyl}piperazin-1-yl)methyl]phenyl}-N-phenylbicyclo[2.2.1]hept-2-ene-1-carboxamide]
121	C[C@@H]1[C@@H](NC(=O)C23CCC(C=C2c2ccccc2CN2CCN(c4ccc(C(=O)NS(=O)(=O)c5ccc(NCC6CCOCC6)c([N+](=O)[O-])c5)cc4)CC2)C3(C)C)C[C@H]2C[C@@H]1C2(C)C [Example 36, 7,7-dimethyl-2-{2-[(4-{4-[({3-nitro-4-[(tetrahydro-2H-pyran-4-ylmethyl)amino]phenyl}sulfonyl)carbamoyl]phenyl}piperazin-1-yl)methyl]phenyl}-N-[(1S,2S,3S,5R)-2,6,6-trimethylbicyclo[3.1.1]hept-3-yl]bicyclo[2.2.1]hept-2-ene-1-carboxamide]
165	CC1(C)C2C=C(c3ccccc3CN3CCN(c4ccc(C(=O)NS(=O)(=O)c5ccc(NCC6CCOCC6)c([N+](=O)[O-])c5)cc4)CC3)C1(C(=O)NCC13CC4CC(CC(C4)C1)C3)CC2 (stereo not shown) [Example 37, N-(adamantan-1-ylmethyl)-7,7-dimethyl-2-{2-[(4-{4-[({3-nitro-4-[(tetrahydro-2H-pyran-4-ylmethyl)amino]phenyl}sulfonyl)carbamoyl]phenyl}piperazin-1-yl)methyl]phenyl}bicyclo[2.2.1]hept-2-ene-1-carboxamide]
149	CC1(C)C2C=C(c3ccccc3CN3CCN(c4ccc(C(=O)NS(=O)(=O)c5ccc(NCC6CCOCC6)c([N+](=O)[O-])c5)cc4)CC3)C1(C(=O)NC1CC1)CC2 (stereo not shown) [Example 38, N-cyclopropyl-7,7-dimethyl-2-{2-[(4-{4-[({3-nitro-4-[(tetrahydro-2H-pyran-4-ylmethyl)amino]phenyl}sulfonyl)carbamoyl]phenyl}piperazin-1-yl)methyl]phenyl}bicyclo[2.2.1]hept-2-ene-1-carboxamide]
2910	CC1(C)C2C=C(c3ccccc3CN3CCN(c4ccc(C(=O)NS(=O)(=O)c5ccc(NCC6CCOCC6)c([N+](=O)[O-])c5)cc4)CC3)C1(C(=O)O)CC2 (stereo not shown) [Example 39, 7,7-dimethyl-2-{2-[(4-{4-[({3-nitro-4-[(tetrahydro-2H-pyran-4-ylmethyl)amino]phenyl}sulfonyl)carbamoyl]phenyl}piperazin-1-yl)methyl]phenyl}bicyclo[2.2.1]hept-2-ene-1-carboxylic Acid]
54.7	O=C(NS(=O)(=O)c1ccc(NCC2CCOCC2)c([N+](=O)[O-])c1)c1ccc(N2CCN(Cc3ccccc3-c3ccc(CN4C5CCCC4CC5)s3)CC2)cc1 [Example 40, 4-[4-(2-{5-[8-azabicyclo[3.2.1]oct-8-ylmethyl]-2-thienyl}benzyl)piperazin-1-yl]-N-({3-nitro-4-[(tetrahydro-2H-pyran-4-ylmethyl)amino]phenyl}sulfonyl)benzamide]
5190	O=C(NS(=O)(=O)c1ccc(NC2CCOCC2)c([N+](=O)[O-])c1)c1ccc(N2CCN(C(=O)C34CC5CC(CC(C5)C3)C4)CC2)cc1 [Example 41, 4-{4-[adamantan-1-ylcarbonyl]piperazin-1-yl}-N-{[3-nitro-4-(tetrahydro-2H-pyran-4-ylamino)phenyl]sulfonyl}benzamide]
2480	O=C(NS(=O)(=O)c1ccc(NC2CCOCC2)c([N+](=O)[O-])c1)c1ccc(N2CCN(C(=O)C3C4CC5CC(C4)CC3C5)CC2)cc1 (stereo not shown) [Example 42, 4-{4-[adamantan-2-ylcarbonyl]piperazin-1-yl}-N-{[3-nitro-4-(tetrahydro-2H-pyran-4-ylamino)phenyl]sulfonyl}benzamide]
> 6250	O=C(NS(=O)(=O)c1ccc(NC2CCOCC2)c([N+](=O)[O-])c1)c1ccc(N2CC3CC2CN3C(=O)C23CC4CC(CC(C4)C2)C3)cc1 (stereo not shown) [Example 43, 4-{5-[adamantan-1-ylcarbonyl]-2,5-diazabicyclo[2.2.1]hept-2-yl}-N-{[3-nitro-4-(tetrahydro-2H-pyran-4-ylamino)phenyl]sulfonyl}benzamide]
> 6250	O=C(NS(=O)(=O)c1ccc(NC2CCOCC2)c([N+](=O)[O-])c1)c1ccc(N2CC3CN(C(=O)C45CC6CC(CC(C6)C4)C5)CC32)cc1 [Example 44, 4-{1S,5S)-3-[adamantan-1-ylcarbonyl]-3,6-diazabicyclo[3.2.0]hept-6-yl}-N-{[3-nitro-4-(tetrahydro-2H-pyran-4-ylamino)phenyl]sulfonyl}benzamide]
79	C[C@@H]1[C@@H](N(CCCc2ccccc2)C2CCN(c3ccc(C(=O)NS(=O)(=O)c4ccc(NC5CCOCC5)c([N+](=O)[O-])c4)cc3)CC2)C[C@H]2C[C@@H]1C2(C)C [Example 45, N-{[3-nitro-4-(tetrahydro-2H-pyran-4-ylamino)phenyl]sulfonyl}-4-(4-{(3-phenylpropyl)[(1S,2S,3S,5R)-2,6,6-trimethylbicyclo[3.1.1]hept-3-yl]amino}piperidin-1-yl)benzamide]
33	C[C@@H]1[C@@H](N(C(=O)CCc2ccccc2)C2CCN(c3ccc(C(=O)NS(=O)(=O)c4ccc(NCC5CCCCC5)c([N+](=O)[O-])c4)cc3)CC2)C[C@H]2C[C@@H]1C2(C)C [Example 46, N-({4-[(cyclohexylmethyl)amino]-3-nitrophenyl}sulfonyl)-4-(4-{(3-phenylpropanoyl)[(1S,2S,3S,5R)-2,6,6-trimethylbicyclo[3.1.1]hept-3-yl]amino}piperidin-1-yl)benzamide]
66.9	O=C(NS(=O)(=O)c1ccc(NCC2CCCCC2)c([N+](=O)[O-])c1)c1ccc(N2CCN(CC34CC5CC(CC(C5)C3)C4)CC2)cc1 [Example 47, 4-{4-[adamantan-1-ylmethyl]piperazin-1-yl}-N-({4-[(cyclohexylmethyl)amino]-3-nitrophenyl}sulfonyl)benzamide]
1390	O=C(NS(=O)(=O)c1ccc(NCC2CCCCC2)c([N+](=O)[O-])c1)c1ccc2cc(-c3ccc(O)c(C45CC6CC(CC(C6)C4)C5)c3)ccc2c1 [Example 48, 6-{3-[adamantan-1-yl]-4-hydroxyphenyl}-N-({4-[(cyclohexylmethyl)amino]-3-nitrophenyl}sulfonyl)-2-naphthamide]
342	O=C(NS(=O)(=O)c1ccc(NCC2CCCCC2)c([N+](=O)[O-])c1)c1ccc(N2CCN(CC(=O)C34CC5CC(CC(C5)C3)C4)CC2)cc1 [Example 49, 4-(4-{2-[adamantan-1-yl]-2-oxoethyl}piperazin-1-yl)-N-({4-[(cyclohexylmethyl)amino]-3-nitrophenyl}sulfonyl)benzamide]
3560	O=C(NS(=O)(=O)c1ccc(NC2CCOCC2)c([N+](=O)[O-])c1)c1ccc(NCC2C3CC4CC(C3)CC2C4)cc1 (stereo not shown) [Example 50, 4-{[adamantan-2-ylmethyl]amino}-N-{[3-nitro-4-(tetrahydro-2H-pyran-4-ylamino)phenyl]sulfonyl}benzamide]
1050	O=C(NS(=O)(=O)c1ccc(NC2CCOCC2)c([N+](=O)[O-])c1)c1ccc(OCCC23CC4CC(CC(C4)C2)C3)cc1 [Example 51, 4-{2-[adamantan-1-yl]ethoxy}-N-{[3-nitro-4-(tetrahydro-2H-pyran-4-ylamino)phenyl]sulfonyl}benzamide]
1390	O=C(CCN(Cc1ccccc1)C(=O)CC12CC3CC(CC(C3)C1)C2)NS(=O)(=O)c1ccc(NCC2CCCCC2)c([N+](=O)[O-])c1 [Example 52, N^3-[adamantan-1-ylacetyl]-N^3-benzyl-N-({4-[(cyclohexylmethyl)amino]-3-nitrophenyl}sulfonyl)-beta-alaninamide]
845	C[C@@H]1[C@@H](N2CCN(c3ccc(C(=O)NS(=O)(=O)c4ccc(NCC5CCCCC5)c([N+](=O)[O-])c4)cc3)CC2)C[C@H]2C[C@@H]1C2(C)C [Example 53, N-({4-[(cyclohexylmethyl)amino]-3-nitrophenyl}sulfonyl)-4-{4-[(1S,2S,3S,5R)-2,6,6-trimethylbicyclo[3.1.1]hept-3-yl]piperazin-1-yl}benzamide]
> 9730	O=C(NS(=O)(=O)c1ccc(NCC2CCCCC2)c([N+](=O)[O-])c1)c1ccc(N2CCN(C34CC5CC(CC(C5)C3)C4)CC2)cc1 [Example 54, 4-{4-[adamantan-1-yl]piperazin-1-yl}-N-({4-[(cyclohexylmethyl)amino]-3-nitrophenyl}sulfonyl)benzamide]
352	CC12CC3CC(C)(C1)CC(N1CCN(c4ccc(C(=O)NS(=O)(=O)c5ccc(NCC6CCCCC6)c([N+](=O)[O-])c5)cc4)CC1)(C3)C2 [Example 55, N-({4-[(cyclohexylmethyl)amino]-3-nitrophenyl}sulfonyl)-4-{4-[3,5-dimethyladamantan-1-yl]piperazin-1-yl}benzamide]
< 20	CC1(C)O[C@@H]2[C@@H](CO[C@@]3(COS(=O)(=O)NC(=O)c4ccc(N5CCN(Cc6ccccc6-c6ccc(Cl)cc6)CC5)cc4)OC(C)(C)O[C@@H]23)O1 [Example 56, [(3 aS,5aR,8aR,8bS)-2,2,7,7-tetramethyltetrahydro-3aH-bis[1,3]dioxolo[4,5-b:4′,5′-d]pyran-3a-yl]methyl (4-{4-[(4′-chlorobiphenyl-2-yl)methyl]piperazin-1-yl}benzoyl)sulfamate]
